Measurements published in patent EP0444482B1, “Oxetanones” (F. HOFFMANN-LA ROCHE AG, priority 1990, dated 1991).

Experiments:
[1] = target: T1, Schweinepankreaslipase (Sus scrofa, UniProt P00591); test: Inhibition of pancreatic lipase (titrimetric measurement of oleic acid released from triolein); assay type: biochemical, Schwein; conditions: substrate triolein emulsion, pH 8, NaOH consumption over 10 min, 1-3 µg lipase; concentration giving half-maximal inhibition of lipase activity; read-out: IC₅₀ (converted)
T1 sequence (P00591 1-450): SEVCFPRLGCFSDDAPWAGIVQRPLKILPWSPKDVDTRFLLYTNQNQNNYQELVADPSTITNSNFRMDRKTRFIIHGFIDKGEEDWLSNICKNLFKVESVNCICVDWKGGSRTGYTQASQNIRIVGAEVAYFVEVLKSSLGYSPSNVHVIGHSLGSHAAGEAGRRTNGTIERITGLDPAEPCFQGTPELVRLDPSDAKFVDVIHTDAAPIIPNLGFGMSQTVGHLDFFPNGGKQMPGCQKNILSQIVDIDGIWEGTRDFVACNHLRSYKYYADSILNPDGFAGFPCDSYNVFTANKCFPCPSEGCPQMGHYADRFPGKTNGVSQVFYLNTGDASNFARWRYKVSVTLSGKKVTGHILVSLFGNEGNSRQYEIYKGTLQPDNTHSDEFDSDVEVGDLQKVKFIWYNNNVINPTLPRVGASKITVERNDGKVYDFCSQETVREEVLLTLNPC
Experimental: Die Hemmung der Pankreaslipase durch die Oxetanone der Formel I kann experimentell gezeigt werden, indem man die bei der Spaltung von Triolein durch Schweinepankreaslipase freigesetzte Oelsäure titrimetrisch erfasst. Zu einer Emulsion, welche 1 mM Taurodeoxycholat, 9 mM Taurocholat, 0,1 mM Cholesterin, 1 mM Eilezithin, 15 mg/ml BSA, 2 mM Tris-HCl, 100 mM Natriumchlorid, 1 mM Calciumchlorid und das Substrat Triolein enthält, gibt man die in Aethanol oder Dimethylsulfoxid (10% des Emulsionsvolumens) gelöste Verbindung der Formel I und startet die Reaktion durch Zugabe von 1-3 µg Schweinepankreaslipase. Das pH wird während der Reaktion durch Zugabe von Natronlauge bei 8 gehalten. Aus dem während 10 Minuten ermittelten Verbrauch an Natronlauge wird die IC₅₀ berechnet. Die IC₅₀ ist diejenige Konzentration, bei der die Lipaseaktivität halbmaximal gehemmt wird. Die nachfolgende Tabelle enthält die für die Verbindungen der Formel I ermittelten IC₅₀-Werte in µg/ml.

[2] = Acute toxicity after a single oral administration; conditions: mouse, in vivo, mice, read-out: akute Toxizität
Experimental: Die akute Toxizität (nach einmaliger oraler Verabreichung an Mäusen) beträgt mehr als 5000 mg/kg für die Produkte der Beispiele 3d, 3h, 3i, 3l, 4a und 10a, b, e und f.

Compound	IC50 [1]	LD50 [2]
CCCCCCCCCCC[C@@H](C[C@@H]1OC(=O)[C@H]1CCCCCC)OC(=O)C(CCC)C(N)=O (mixture of isomers) [Beispiel 2d, (S)-1-[[(2S,3S)-3-Hexyl-4-oxo-2-oxetanyl]methyl]-dodecyl-(RS) -2-carbamoylvalerat]	249 nM	
CCCCCCCCCCC[C@@H](C[C@@H]1OC(=O)[C@H]1CCCCCC)OC(=O)C(C)C(N)=O (mixture of isomers) [Beispiel 3i, (S)-1-[[(2S,3S)-3-Hexyl-4-oxo-2-oxetanyl]methyl]dodecyl-(RS)-2-methylmalonamat]	926 nM	> 5000 mg/kg
CCCCCCCCCCCCCCCCC[C@@H](C[C@@H]1OC(=O)[C@H]1CC)OC(=O)C(C(N)=O)C(C)C (single isomer, unassigned) [Beispiel 1a]	62.8 nM	
CCCCCCCCCCCCCCCCC[C@@H](C[C@@H]1OC(=O)[C@H]1CC)OC(=O)C(C(N)=O)C(C)C (single isomer, unassigned) [Beispiel 1b]	49 nM	
CCCCCCCCCCC[C@@H](C[C@@H]1OC(=O)[C@H]1CCCCCC)OC(=O)C(C(N)=O)C(C)C (single isomer, unassigned) [Beispiel 2b]	131 nM	
CCCCC/C=C\C/C=C\CCCCCCC[C@@H](C[C@@H]1OC(=O)[C@H]1CC)OC(=O)C(C(N)=O)C(C)C (single isomer, unassigned) [Beispiel 2g1]	103 nM	
CCCCC/C=C\C/C=C\CCCCCCC[C@@H](C[C@@H]1OC(=O)[C@H]1CC)OC(=O)C(C(N)=O)C(C)C (single isomer, unassigned) [Beispiel 2g2]	25.7 nM	
CCCCCCCCCCCCCCCCC[C@@H](C[C@@H]1OC(=O)[C@H]1CC)OC(=O)C(C(N)=O)C(C)(C)C (single isomer, unassigned) [Beispiel 37]	64.9 nM	
CCCCCCCCCCCCCCCCC[C@@H](C[C@@H]1OC(=O)[C@H]1CC)OC(=O)C(CCC)C(N)=O (stereo partly drawn) [Beispiel 2e, (S)-1-[[(2S,3S)-3-Aethyl-4-oxo-2-oxetanyl]-methyl]octadecyl-(RS)-2-carbamoylvalerat]	100 nM	
CCCCCCCCCCCCCCCCC[C@@H](C[C@@H]1OC(=O)[C@H]1CC)OC(=O)C1(C(N)=O)OCCO1 [Beispiel 2f, (S)-1-[[(2S,3S)-3-Aethyl-4-oxo-2-oxetanyl]-methyl]octadecyl-2-carbamoyl-1,3-dioxolan-2-carboxylat]	894 nM	
CCCCCCCCCCC[C@@H](C[C@@H]1OC(=O)[C@H]1CCCCCC)OC(=O)C(N)=O [Beispiel 3d, (S)-1-[[(2S,3S)-3-Hexyl-4-oxo-2-oxetanyl]methyl]dodecyloxamat]	2110 nM	> 5000 mg/kg
CCCCCCCCCCC[C@@H](C[C@@H]1OC(=O)[C@H]1CCCCCC)OC(=O)C(C)(C)C(N)=O [Beispiel 3h, (S)-1-[[(2S,3S)-3-Hexyl-4-oxo-2-oxetanyl]methyl]dodecyl-2,2-dimethylmalonamat]	4490 nM	> 5000 mg/kg
CCCCCCCCCCC[C@@H](C[C@@H]1OC(=O)[C@H]1CCCCCC)OC(=O)C(CC)(CC)C(N)=O [Beispiel 3l, (S)-1-[[(2S,3S)-3-Hexyl-4-oxo-2-oxetanyl]methyl]dodecyl-2,2-diäthylmalonamat]	1570 nM	> 5000 mg/kg
CCCCCCCCCCCCCCCCC[C@@H](C[C@@H]1OC(=O)[C@H]1CC)OC(=O)C1(C(N)=O)CCCCC1 [Beispiel 4a, (S)-1-[[(2S,3S)-3-Aethyl-4-oxo-2-oxetanyl]methyl]octadecyl-1-carbamoylcyclohexancarboxylat]	299 nM	> 5000 mg/kg
CCCCCCCCCCCCCCCCC[C@@H](C[C@@H]1OC(=O)[C@H]1CC)OC(=O)C(N)=O [Beispiel 10a, (S)-1-[[(2S,3S)-3-Aethyl-4-oxo-2-oxetanyl]methyl]octadecyloxamat]	183 nM	> 5000 mg/kg
CCCCCCCCCCCCCCCCC[C@@H](C[C@@H]1OC(=O)[C@H]1CC)OC(=O)CC(N)=O [Beispiel 10b, (S)-1-[[(2S,3S)-3-Aethyl-4-oxo-2-oxetanyl]methyl]octadecylmalonamat]	89.8 nM	> 5000 mg/kg
CCCCCCCCCCCCCCCCC[C@@H](C[C@@H]1OC(=O)[C@H]1CC)OC(=O)C(C)C(N)=O (stereo partly drawn) [Beispiel 10e, (S)-1-[[(2S,3S)-3-Aethyl-4-oxo-2-oxetanyl]methyl]octadecyl-(RS)-2-methylmalonamat]	56 nM	> 5000 mg/kg
CCCCCCCCCCCCCCCCC[C@@H](C[C@@H]1OC(=O)[C@H]1CC)OC(=O)CCC(N)=O [Beispiel 10f, (S)-1-[[(2S,3S)-3-Aethyl-4-oxo-2-oxetanyl]methyl]octadecyl-succinamat]	664 nM	> 5000 mg/kg
CCCCCCCCCCCCCCCCC[C@@H](C[C@@H]1OC(=O)[C@H]1CC)OC(=O)C1(C(N)=O)CCCC1 [Beispiel 43, (S)-1-[[(2S,3S)-3-Aethyl-4-oxo-2-oxetanyl]methyl]octadecyl-1-carbamoylcyclopentancarboxylat]	230 nM	
CCCCCCCCCCC[C@@H](C[C@@H]1OC(=O)[C@H]1CCCCCC)OC(=O)C(Cc1ccccc1)C(N)=O (stereo partly drawn) [Beispiel 45, (S)-1-[[(2S,3S)-3-Hexyl-4-oxo-2-oxetanyl]methyl]dodecyl-(RS)-2-benzylmalonomat]	88.7 nM	
CCCCCCCCCCC[C@@H](C[C@@H]1OC(=O)[C@H]1CCCCCC)OC(=O)CCSCCC(N)=O [Beispiel 51, (S)-1-[[(2S,3S)-3-Hexyl-4-oxo-2-oxetanyl]methyl]dodecyl-3-[(2-carbamoyläthyl)thio]propionat]	701 nM	

Second part, led by results:

IC50 [1]	Compound	LD50 [2]
167 nM	CCCCCCCCCCC[C@@H](C[C@@H]1OC(=O)[C@H]1CCCCCC)OC(=O)C(CC(C)C)C(N)=O (mixture of isomers) [Beispiel 3f, (S)-1-[[(2S,3S)-3-Hexyl-4-oxo-2-oxetanyl]methyl]dodecyl-(RS)-2-carbamoyl-4-methylvalerat]	
242 nM	CCCCCCCCCCC[C@@H](C[C@@H]1OC(=O)[C@H]1CCCCCC)OC(=O)C(CCCC)C(N)=O (mixture of isomers) [Beispiel 3k, (S)-1-[[(2S,3S)-3-Hexyl-4-oxo-2-oxetanyl]methyl]dodecyl-(RS)-2-butylmalonamat]	
162 nM	CCCCCCCCCCC[C@@H](C[C@H]1OC(=O)[C@@H]1Cc1ccccc1)OC(=O)C(C(N)=O)C(C)C (single isomer, unassigned) [Beispiel 7b]	
887 nM	CCCCCCCCCCC[C@@H](C[C@@H]1OC(=O)[C@H]1CCCCCC)OC(=O)CC(N)=O [Beispiel 3c, 2-Carbamoylessigsäure-(S)-1-[[(2S,3S)-3-hexyl-4-oxo-2-oxetanyl]methyl]dodecylester]	
3110 nM	CCCCCCCCCCC[C@@H](C[C@@H]1OC(=O)[C@H]1CCCCCC)OC(=O)CC(=O)NC [Beispiel 3e, (S)-1-[[(2S,3S)-3-Hexyl-4-oxo-2-oxetanyl]methyl]dodecyl -N-methylmalonamat]	
579 nM	CCCCCCCCCCC[C@@H](C[C@@H]1OC(=O)[C@H]1CCCCCC)OC(=O)C1(C(N)=O)CCCCC1 [Beispiel 3g, (S)-1-[[(2S,3S)-3-Hexyl-4-oxo-2-oxetanyl]methyl]dodecyl-1-carbamoylcydohexancarboxylat]	
342 nM	CCCCCCCCCCC[C@@H](C[C@@H]1OC(=O)[C@H]1CCCCCC)OC(=O)C(CC)C(N)=O (stereo partly drawn) [Beispiel 3j, (S)-1-[[(2S,3S)-3-Hexyl-4-oxo-2-oxetanyl]methyl]dodecyl-(RS)-2-äthylmalonamat]	
112 nM	CCCCCCCCCCC[C@@H](CC1OC(=O)C1SCCCCC)OC(=O)C(C(N)=O)C(C)C (stereo partly drawn) [Beispiel 6b, (S)-1-[[(2S,3S oder 2R,3R)-4-Oxo-3-pentylthio-2-oxetanyl]methyl]-dodecyl-[S:R oder R:S(2:1)]-2-isopropylmalonamat]	
208 nM	CCCCCCCCCCCCCCCCC[C@@H](C[C@@H]1OC(=O)[C@H]1CC)OC(=O)CC(=O)NC [Beispiel 10c, (S)-1-[[(2S,3S)-3-Aethyl-4-oxo-2-oxetanyl]methyl]octadecyl-N-methylmalonamat]	
948 nM	CCCCCCCCCCCCCCCCC[C@@H](C[C@@H]1OC(=O)[C@H]1CC)OC(=O)CC(=O)N(C)C [Beispiel 10d, (S)-1-[[(2S,3S)-3-Aethyl-4-oxo-2-oxetanyl]methyl]octadecyl-N,N-dimethylmalonamat]	
567 nM	CCCCCCCCCCCCCCCCC[C@@H](C[C@@H]1OC(=O)[C@H]1CC)OC(=O)[C@H]1CCC(=O)N1 [Beispiel 78c, 5-Oxo-D-prolin-(S)-1-[[(2S,3S)-3-äthyl-4-oxo-2-oxetanyl]methyl]octadecyl-ester]	
103 nM	CCCCCCCCCCCCCCCCC[C@@H](C[C@@H]1OC(=O)[C@H]1CC)OC(=O)[C@@H]1CCC(=O)N1 [Beispiel 78d, 5-Oxo-L-prolin-(S)-1-[[(2S,3S)-3-äthyl-4-oxetanyl]methyl]octadecyl-ester]	
